Laboratory results as given in patent US20090054453A1, “Novel Tetralins as 5-HT6 Modulators” (priority 2006, published 2009).

Target: T1, rat striatal 5-HT6 receptors (Rattus norvegicus, UniProt P31388)
T1 construct: Striatal tissue from adult rats (Sprague-Dawley, 320-370 g, B & K Sweden) were dissected out, weighed and homogenized; from tissue; host or cells: rat striatum (Sprague-Dawley) membranes
Test: [125I]SB258585 binding to rat striatal 5-HT6 receptors
Conditions: competition with [125I]SB258585, rat striatal membranes
Procedure: Method for [125I]SB258585 binding to rat striatal 5-HT6 receptors
[^125I]SB258585 (1) with specific radioactivity 2000 Ci/mmol was purchased from Amersham Biosciences Europe GmbH, Freiburg, Germany. Other chemicals were purchased from commercial sources and were of analytical grade.
Striatal tissue from adult rats (Sprague-Dawley, 320-370 g, B & K Sweden) were dissected out, weighed and homogenized in buffer containing 50 mM Tris-HCl, 4 mM MgCl2, 1 mM EDTA, 10 μM pargyline and protease inhibitor (Complete, Roche Diagnostics) pH 7.4 using an Ultra-Turrax T8 (IKA Labortechnik, Germany). The tissue homogenate was centrifuged at 48 000×g for 10 min and the pellet was resuspended and recentrifuged as above. […]
Saturation binding studies were carried out in duplicate with 1-3 mg w.w. per tube in 0.5 ml buffer (50 mM Tris, 4 mM MgCl2, 100 mM NaCl, 1 mM EDTA, 5 mM ascorbate and 10 μM pargyline at pH 7.4), 0.2 nM [^125I]SB258585 and unlabelled SB258585 to give a final concentration range of 0.23-20 nM (12 conc.). Non-specific binding was determined in the presence of 10 μM methiothepin. […] The radioactivity was determined in a Packard Tri-Carb 2900TR liquid scintillation counter. Data were analyzed by non-linear regression analyses using PRISM 4.00 (GraphPad Software Inc., San Diego, Calif.). […]

T1 sequence (P31388 whole entry): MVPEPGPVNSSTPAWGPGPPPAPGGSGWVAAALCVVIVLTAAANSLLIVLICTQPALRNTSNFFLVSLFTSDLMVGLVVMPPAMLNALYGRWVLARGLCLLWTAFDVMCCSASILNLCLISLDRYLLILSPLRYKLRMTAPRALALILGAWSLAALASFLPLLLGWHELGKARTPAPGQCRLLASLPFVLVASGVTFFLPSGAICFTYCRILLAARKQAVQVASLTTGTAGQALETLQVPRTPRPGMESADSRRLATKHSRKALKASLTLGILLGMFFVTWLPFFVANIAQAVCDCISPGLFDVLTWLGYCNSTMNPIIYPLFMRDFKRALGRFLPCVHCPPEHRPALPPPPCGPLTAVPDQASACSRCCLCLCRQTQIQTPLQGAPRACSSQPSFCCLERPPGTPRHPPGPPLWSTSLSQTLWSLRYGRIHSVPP

Ki: 0.8 nM
SMILES: CN1CCN(c2cccc3c2C[C@H](NS(=O)(=O)c2ccc4ccccc4c2)CC3)CC1 [Example 12, N-[(2R)-8-(4-Methylpiperazin-1-yl)-1,2,3,4-tetrahydronaphthalen-2-yl]naphthalene-2-sulfonamide]
